Experimental findings from patent US10377753B2, “Substituted 4-azaindoles and their use as GluN2B receptor modulators” (Janssen Pharmaceutica NV, priority 2015, dated 2019) are described below.

The test deals with cloned human NR1/NR2B ion channels (Homo sapiens (Human), UniProt Q05586+Q13224). Briefly: HNR2BC: effects of test articles on cloned human NR1/NR2B ion channels expressed in mammalian cells (FLIPR calcium flux). It counts as cell-based. The settings on record: cloned human NR1/NR2B, Table 5. In a few lines: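 Compounds were added to dye-loaded cells for 5 min with fluorescence monitored for agonism, followed by co-agonists (glutamate ~EC80, glycine 10 μM saturating) for 5 min. Cells stably expressed inducible human NR1/NR2B, and the buffer was pH 7.4. The FLIPR Ca2+ flux signal was normalized against control wells.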
Chain of cloned human NR1/NR2B ion channels (Q13224 27-1484, other chains not shown): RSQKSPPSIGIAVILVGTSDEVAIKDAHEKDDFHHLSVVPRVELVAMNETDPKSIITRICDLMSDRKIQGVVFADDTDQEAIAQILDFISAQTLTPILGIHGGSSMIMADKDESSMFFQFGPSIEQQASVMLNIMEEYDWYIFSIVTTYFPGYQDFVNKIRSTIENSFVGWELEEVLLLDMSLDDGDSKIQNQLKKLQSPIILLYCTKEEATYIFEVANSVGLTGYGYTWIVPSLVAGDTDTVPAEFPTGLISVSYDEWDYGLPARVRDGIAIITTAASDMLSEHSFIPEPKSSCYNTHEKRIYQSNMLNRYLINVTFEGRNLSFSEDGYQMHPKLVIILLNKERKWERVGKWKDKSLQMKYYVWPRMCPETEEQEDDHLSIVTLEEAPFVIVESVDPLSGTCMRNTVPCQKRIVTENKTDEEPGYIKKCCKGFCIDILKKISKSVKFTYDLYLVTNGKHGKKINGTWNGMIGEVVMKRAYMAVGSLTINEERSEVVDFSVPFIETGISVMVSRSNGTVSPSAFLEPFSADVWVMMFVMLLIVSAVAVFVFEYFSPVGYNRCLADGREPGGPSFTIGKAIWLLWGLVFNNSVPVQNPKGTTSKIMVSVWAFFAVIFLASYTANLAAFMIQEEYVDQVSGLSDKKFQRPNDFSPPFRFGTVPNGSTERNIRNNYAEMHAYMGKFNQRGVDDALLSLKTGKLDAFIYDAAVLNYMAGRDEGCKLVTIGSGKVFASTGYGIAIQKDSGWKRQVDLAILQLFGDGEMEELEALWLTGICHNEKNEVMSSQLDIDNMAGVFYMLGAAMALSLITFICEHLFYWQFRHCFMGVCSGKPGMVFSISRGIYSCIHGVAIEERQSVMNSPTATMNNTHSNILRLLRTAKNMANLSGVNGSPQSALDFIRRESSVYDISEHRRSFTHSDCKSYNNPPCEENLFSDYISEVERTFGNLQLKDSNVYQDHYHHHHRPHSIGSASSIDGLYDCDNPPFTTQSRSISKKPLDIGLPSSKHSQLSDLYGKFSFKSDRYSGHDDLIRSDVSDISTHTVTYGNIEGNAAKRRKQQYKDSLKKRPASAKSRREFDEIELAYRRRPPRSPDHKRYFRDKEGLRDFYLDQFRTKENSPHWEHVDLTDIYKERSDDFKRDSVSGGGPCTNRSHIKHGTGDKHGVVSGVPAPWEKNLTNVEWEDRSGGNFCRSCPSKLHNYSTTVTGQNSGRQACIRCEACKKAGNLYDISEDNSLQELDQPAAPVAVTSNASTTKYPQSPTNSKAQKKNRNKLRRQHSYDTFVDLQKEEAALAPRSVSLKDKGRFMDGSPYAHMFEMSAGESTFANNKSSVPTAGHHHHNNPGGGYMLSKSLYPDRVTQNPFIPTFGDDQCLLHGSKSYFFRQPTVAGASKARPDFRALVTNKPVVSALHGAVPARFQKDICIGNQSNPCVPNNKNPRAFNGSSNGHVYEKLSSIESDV
In general terms: Calcium assays in cells follow changes in intracellular calcium, usually with a dye or a luminescent sensor.
`O=C(Cn1ccc2ncc(-c3ccc(F)c(C(F)(F)F)c3)cc21)NC1CC1` [Example 101, N-Cyclopropyl-2-[6-[4-fluoro-3-(trifluoromethyl)phenyl]pyrrolo[3,2-b]pyridin-1-yl]acetamide]: the IC50 was 0.2 µM.
As for `O=C(Cn1ccc2ncc(-c3cncc(C(F)(F)F)c3)cc21)N1CCC1` [Example 102, 1-(Azetidin-1-yl)-2-[6-[5-(trifluoromethyl)-3-pyridyl]pyrrolo[3,2-b]pyridin-1-yl]ethanone], the figure is 0.398 µM; as for `O=C(Cn1ccc2ncc(-c3ccc(F)c(F)c3)cc21)N1CCC1` [Example 103, 1-(Azetidin-1-yl)-2-[6-(3,4-difluorophenyl)pyrrolo[3,2-b]pyridin-1-yl]ethanone], 0.251 µM.
Under `O=C(Cn1ccc2ncc(-c3ccc(F)c(C(F)(F)F)c3)cc21)N1CCC1` [Example 104, 1-(Azetidin-1-yl)-2-[6-[4-fluoro-3-(trifluoromethyl)phenyl]pyrrolo[3,2-b]pyridin-1-yl]ethanone] stands 0.0316 µM; under `O=C(Cn1ccc2ncc(-c3ccc(F)c(C(F)(F)F)c3)cc21)N1CCCC1` [Example 105, 2-[6-[4-Fluoro-3-(trifluoromethyl)phenyl]pyrrolo[3,2-b]pyridin-1-yl]-1-pyrrolidin-1-yl-ethanone], 0.0398 µM; under `O=C(Cn1ccc2ncc(-c3ccc(F)c(C(F)(F)F)c3)cc21)N1CC(F)(F)C1` [Example 106, 1-(3,3-Difluoroazetidin-1-yl)-2-[6-[4-fluoro-3-(trifluoromethyl)phenyl]pyrrolo[3,2-b]pyridin-1-yl]ethanone], 0.316 µM.
As for `O=C(Cn1ccc2ncc(-c3ccc(F)c(F)c3)cc21)N1CCOCC1` [Example 107, 2-[6-(3,4-Difluorophenyl)pyrrolo[3,2-b]pyridin-1-yl]-1-morpholino-ethanone], the figure is 0.158 µM.
`O=C(Cn1ccc2ncc(-c3ccc(F)c(C(F)(F)F)c3)cc21)N1CCOCC1` [Example 108, 2-[6-[4-Fluoro-3-(trifluoromethyl)phenyl]pyrrolo[3,2-b]pyridin-1-yl]-1-morpholino-ethanone]: the IC50 is 0.126 µM.
As for `O=C(Cn1ccc2ncc(-c3ccnc(C(F)(F)F)c3)cc21)N1CCC1` [Example 109, 1-(Azetidin-1-yl)-2-[6-[2-(trifluoromethyl)-4-pyridyl]pyrrolo[3,2-b]pyridin-1-yl]ethanone], the figure is 0.158 µM; as for `O=C(Cn1ccc2ncc(-c3ccnc(C(F)(F)F)c3)cc21)NC1CC1` [Example 110, N-Cyclopropyl-2-[6-[2-(trifluoromethyl)-4-pyridyl]pyrrolo[3,2-b]pyridin-1-yl]acetamide], 0.251 µM; as for `O=C(Cn1ccc2ncc(-c3cccc(C(F)(F)F)n3)cc21)NC1CC1` [Example 111, N-Cyclopropyl-2-[6-[6-(trifluoromethyl)-2-pyridyl]pyrrolo[3,2-b]pyridin-1-yl]acetamide], 0.398 µM.
Regarding `Cc1ccc(-c2cnc3ccn(CC(=O)N4CCC4)c3c2)cn1` [Example 112, 1-(Azetidin-1-yl)-2-[6-(6-methyl-3-pyridyl)pyrrolo[3,2-b]pyridin-1-yl]ethanone], the IC50 is 0.501 µM.
As for `N#Cc1ccc(-c2cnc3ccn(CC(=O)N4CCC4)c3c2)cn1` [Example 113, 5-[1-[2-(Azetidin-1-yl)-2-oxo-ethyl]pyrrolo[3,2-b]pyridin-6-yl]pyridine-2-carbonitrile], the figure is 5.01 µM; as for `Fc1ccc(-c2cnc3ccn(Cc4cncnc4)c3c2)cc1F` [Example 114, 6-(3,4-Difluorophenyl)-1-(pyrimidin-5-ylmethyl)pyrrolo[3,2-b]pyridine], > 10 µM.
As for `Fc1cnc(Cn2ccc3ncc(-c4ccc(F)c(F)c4)cc32)nc1` [Example 115, 6-(3,4-Difluorophenyl)-1-[(5-fluoropyrimidin-2-yl)methyl]pyrrolo[3,2-b]pyridine], the figure is 0.316 µM; as for `O=C(C1CCC1)n1ccc2ncc(-c3ccc(F)c(F)c3)cc21` [Example 116, Cyclobutyl-[6-(3,4-difluorophenyl)pyrrolo[3,2-b]pyridin-1-yl]methanone], 0.794 µM.
As for `O=C(Cn1ccc2ncc(-c3cccc(C(F)(F)F)n3)cc21)N1CC(F)(F)C1` [Example 117, 1-(3,3-Difluoroazetidin-1-yl)-2-[6-[6-(trifluoromethyl)-2-pyridyl]pyrrolo[3,2-b]pyridin-1-yl]ethanone], the figure is 5.01 µM.
For the compound `O=C(Cn1ccc2ncc(-c3ccc(F)c(F)c3F)cc21)N1CCC1` [Example 118, 1-(Azetidin-1-yl)-2-[6-(2,3,4-trifluorophenyl)pyrrolo[3,2-b]pyridin-1-yl]ethanone], the IC50 was 0.1 µM.
Regarding `O=C(CC1CC1)n1ccc2ncc(-c3ccc(F)c(F)c3)cc21` [Example 119, 2-Cyclopropyl-1-[6-(3,4-difluorophenyl)pyrrolo[3,2-b]pyridin-1-yl]ethanone], the IC50 was 0.0501 µM.
For the compound `O=C(Cn1ccc2ncc(-c3ccc(F)c(F)c3F)cc21)N1CCCC1` [Example 120, 1-Pyrrolidin-1-yl-2-[6-(2,3,4-trifluorophenyl)pyrrolo[3,2-b]pyridin-1-yl]ethanone], the IC50 is 0.631 µM.
Under `O=C(Cn1ccc2ncc(-c3cc(F)cc(F)c3)cc21)N1CC(F)(F)C1` [Example 121, 1-(3,3-difluoroazetidin-1-yl)-2-[6-(3,5-difluorophenyl)pyrrolo[3,2-b]pyridin-1-yl]ethanone] stands 0.0631 µM; under `O=C(Cn1ccc2ncc(-c3cc(F)cc(F)c3)cc21)N1CCCC1` [Example 122, 2-[6-(3,5-Difluorophenyl)pyrrolo[3,2-b]pyridin-1-yl]-1-pyrrolidin-1-yl-ethanone], 0.0398 µM.
As for `O=C(Cn1ccc2ncc(-c3cc(F)c(F)c(F)c3)cc21)N1CCCC1` [Example 123, 1-Pyrrolidin-1-yl-2-[6-(3,4,5-trifluorophenyl)pyrrolo[3,2-b]pyridin-1-yl]ethanone], the figure is 0.02 µM.
As for `O=C(Cn1ccc2ncc(-c3cc(F)c(F)c(F)c3)cc21)N1CC(F)(F)C1` [Example 124, 1-(3,3-Difluoroazetidin-1-yl)-2-[6-(3,4,5-trifluorophenyl)pyrrolo[3,2-b]pyridin-1-yl]ethanone], the IC50 was 0.0316 µM.
For the compound `O=C(Cn1ccc2ncc(-c3cc(F)cc(F)c3)cc21)N1CCOCC1` [Example 125, 2-[6-(3,5-Difluorophenyl)pyrrolo[3,2-b]pyridin-1-yl]-1-morpholino-ethanone], the IC50 is 0.0316 µM.
As for `O=C(Cn1ccc2ncc(-c3ccc(F)c(F)c3F)cc21)N1CCOCC1` [Example 126, 1-Morpholino-2-[6-(2,3,4-trifluorophenyl)pyrrolo[3,2-b]pyridin-1-yl]ethanone], the figure is 0.1 µM; as for `O=C(Cn1ccc2ncc(-c3cc(F)c(F)c(F)c3)cc21)N1CCOCC1` [Example 127, 1-Morpholino-2-[6-(3,4,5-trifluorophenyl)pyrrolo[3,2-b]pyridin-1-yl]ethanone], 0.158 µM.
As for `O=C(Cn1ccc2ncc(-c3ccc(F)c(F)c3)cc21)N1CC(F)C1` [Example 128, 2-[6-(3,4-Difluorophenyl)pyrrolo[3,2-b]pyridin-1-yl]-1-(3-fluoroazetidin-1-yl)ethanone], the figure is 0.0631 µM.

In general, IC50 refers to the concentration that inhibits the measured activity by half.
